# Reference: patent US20230201221A1, “USE OF TERPENOIDS IN THE TREATMENT OR PREVENTION OF FIBROTIC DISEASES” (ARJIL BIOTECH HOLDING COMPANY LIMITED, priority 2020, published 2023)
# Values joined by “and” are separate entries in the source; they are usually repeats but may differ in a detail not shown here. Equal entries are not always repeated.
# What was measured:
# Type in all cases: in vivo
# MPO = test: Bleomycin-induced pulmonary fibrosis in mice: lung myeloperoxidase (MPO) assay; conditions: compared with BLM group, p<0.001
# Procedure: (§1) Mice were divided into fifth groups with 5 animals per group according to body weight: control group, BLM group, BLM+DEX group (7.5 mg/kg), BLM+ACH dosage group (50 mg/kg), and BLM+ACM dosage group (25 mg/kg), BLM+ACH dosage group (50 mg/kg), and BLM+ACM dosage group (25 mg/kg) BLM+AH dosage group (50 mg/kg), and BLM+AM dosage group (25 mg/kg) BLM+BH dosage group (50 mg/kg), and BLM+BM dosage group (25 mg/kg) BLM+CH dosage group (50 mg/kg), and BLM+CM dosage group (25 mg/kg) BLM+DH dosage group (50 mg/kg), and BLM+DM dosage group (25 mg/kg) BLM+EH dosage group (50 mg/kg), and BLM+EM dosage group (25 mg/kg) BLM. Pulmonary fibrosis (PF) was established in mice via a single intratracheal administration of BLM at 7.5 mg/kg mg/kg body weight. Different doses of samples were intragastrically administered daily for 21 days after BLM injury, and DEX was used as the positive control. Control and model groups received an equal volume of vehicle (0.9% NaCl) using the same schedule and route of administration.
# The pulmonary MPO activity was a reliable index for estimating the infiltration of inflammatory cells in lungs. The lung tissues were homogenized and the MPO levels were detected with the kits according to manufacturer's instruction.
# ICR mice [1] = test: Bleomycin-induced pulmonary fibrosis in mice: lung hydroxyproline content; conditions: extract 1.0 g/kg; AH, BH, DH 50 mg/kg; p<0.001
# Procedure: as §1
# The contents of hydroxyproline were analyzed in lung tissue following the instruction of hydroxyproline assay kit (Biosource International Inc., Sunnyvale, Calif., USA). The pulmonary tissues of mice were ground and homogenized with 1 ml of 6 mol/L […] solution, hydrolyzed at 95° C. for 5 hours, and the pH value was adjusted to 6.0-6.8. According to the instructions, the corresponding reagents were added to the reaction system and mixed thoroughly and then incubated for 15 minutes at 60° C. After cooling, the supernatants were collected after centrifuging at 3500 rpm for 10 minutes. The absorbance value of the supernatant from the samples was measured at 550 nm by a spectrophotometer and calculated for the contents of hydroxyproline on each group.
# C57BL/6 mice = test: Cisplatin-induced renal injury in mice: serum CRE and BUN; conditions: extracts at 1000 mg/kg; compared to cisplatin-stimulated group, p<0.001
# Procedure: Determination of biochemical parameters Serum creatinine and serum urea are assessed using colorimetric kits according to manufacturer's instructions. Kits of the former markers are purchased from (HUMAN Diagnostics Worldwide, Magdeburg, Germany) with a chemical analyzer (Roche Diagnostics, Cobas Mira Plus, Rotkreuz, Switzerland).
# Seven-to-eight-week-old male C57BL/6 mice are obtained from the BioLASCO Taiwan Co., Ltd. (Taipei, Taiwan). The animals are housed in Plexiglas cages at a constant temperature of 22±1° C. and a relative humidity of 55±5% on a 12 h dark-light cycle for at least 2 weeks before the experiment. Animals are provided food and water ad libitum. All experimental procedures are performed according to the guidelines of the Institutional Animal Ethics Committee, and the protocol is approved by the Committee for the Purpose of Control and Supervision of Experiments on Animals.
# Renal fibrosis is induced via multiple injections of low-dose cisplatin. Intraperitoneal injections of cisplatin (5 mg/kg/injection; P4394, Sigma-Aldrich, St Louis, Mo.) are performed at 0, 1, and 3 weeks, for a total of 3 injections. Mice are sacrificed at 6 weeks after the first dose of cisplatin (n=6). To analyze the effects of samples, mice are given daily intraperitoneal injections for 7 days, starting from 4 weeks after first dose of cisplatin, and sacrificed at […] (n=6).
# [2] = system: New Zealand White rabbits; test: Hypercholesterolemic rabbit model: liver histology scores (steatosis, inflammation, fibrosis); set-up: key to Score of Fibrosis: 0: none; 1: mild perisinusoidal or periportal; 2: perisinusoidal and portal/periportal; 3: bridging fibrosis; 4: cirrhosis; key to Score of Steatosis Location: 0: zone 3, centrilobular; 1: zone 2, mid-zonal; 3: panacinar; conditions: individual liver slides; 0.5% cholesterol chow plus 10 mg/kg Lovastatin, 1% ARH003, 1% ARH004 or 10 mg/kg AR101-DS2; 12-week study
# [3] = system: TNF-α, IL-1β, IL-6 and TGF-β; test: Bleomycin-induced pulmonary fibrosis in mice: pro-inflammatory cytokines by ELISA; conditions: extract 1.0 g/kg; BH, DH 50 mg/kg; after BLM challenge; p<0.001
# Procedure: as §1, with “administration. […]” for “administration.”
# The serum concentration of the pro-inflammatory cytokines (i.e. tumor necrosis factor-α (TNF-α), interleukin-6 (IL-6), and IL-1β) in serum were assessed with relevant enzyme-linked immunosorbent assay (ELISA) kits (Biosource International Inc., Sunnyvale, Calif., USA), based on the manufacturer's instructions.
# ICR mice [4] = test: Bleomycin-induced pulmonary fibrosis in mice: body weight, lung weight, lung index; conditions: for Pulmonary index: (lung weight/body weight)×100
# Procedure: Specific pathogen-free ICR mice (males) (body weights 18-22 g) were purchased from the BioLASCO Taiwan Co., Ltd. (Taipei, Taiwan). The animals were housed in Plexiglas cages at a constant temperature of 22±1° C. and a relative humidity of 55±5% on a 12 h dark-light cycle for at least 2 weeks before the experiment. Animals were provided food and water ad libitum. All experimental procedures were performed according to the guidelines of the Institutional Animal Ethics Committee, and the protocol was approved by the Committee for the Purpose of Control and Supervision of Experiments on Animals.
# as §1
# Mouse body weights were recorded daily. Mice were sacrificed on the 21th day using excess chloral hydrate hydrochloride anesthesia. Blood was obtained for ELISA analyses, and whole lungs were removed and weighed. The right lungs were fixed in 10% formalin, dehydrated, and embedded in paraffin. The left lungs were used to determine hydroxyproline. The pulmonary coefficient was calculated using the following equation: lung weight/body weight×100%
# 1. Group I: control; 2. Group II: mice received single intraperitoneal injection of BLM (7.5 mg/kg BW) 3. Group III: single dose (ACH, 0.5 g/kg) 4. Group IV: Single dose (ACM, 1.0 g/kg) 5. […] Group VII: purified AR101-DS2 (50 mg/kg) 8. Group VIII: purified AR101-DS2 (25 mg/kg) 7. Group VII: purified AR101-DS4 (50 mg/kg) 8. Group VIII: purified AR101-DS4 (25 mg/kg) 7. […] Group VII: purified ARH013-RA1 (50 mg/kg) 8. Group VIII: purified ARH013-RA1 (25 mg/kg)
# [5] = 25 mg/kg intragastric daily for 21 days after BLM
# [6] = 50 mg/kg intragastric daily for 21 days after BLM
Compound,lung MPO activity (MPO),hydroxyproline (HP) content in lung tissue (ICR mice [1]),renal protection: normalization of serum CRE and BUN (C57BL/6 mice),Score of Fibrosis [2],Score of Inflammation [2],Score of Steatosis Grade [2],Score of Steatosis Location [2],"TNF-α, IL-1β, IL-6 and TGF-β production [3]",Final body mass (ICR mice [4]; [5]),Pulmonary mass (ICR mice [4]; [5]),Pulmonary index (ICR mice [4]; [5]),Final body mass (ICR mice [4]; [6]),Pulmonary mass (ICR mice [4]; [6]),Pulmonary index (ICR mice [4]; [6]),"lung index, result in words (ICR mice [4]; high-dose groups (ACH 1.0 g/kg; BH, DH 50 mg/kg), vs bleomycin-administered animals)"
"C=C(CC[C@@H](C)[C@H]1CC[C@H]2C3=C(C(=O)C[C@]12C)[C@@]1(C)CC[C@@H](O)[C@](C)(O)[C@@H]1C[C@@H]3O)[C@@H](C)C(=O)O (racemic) [AR101-DS1, RS-Antcin K]",evidently suppressed the MPO activities,reduced lung HP,,,,,,,,,,,,,
"C=C(CC[C@@H](C(=O)O)[C@H]1CC[C@@]2(C)C3=CC[C@H]4C(C)(C)[C@@H](O)CC[C@]4(C)C3=CC[C@]12C)C(C)C [AR101-DS4, Dehydroeburicoic Acid]",,,significant renal protection effect,,,,,,,,,,,,
"CC[C@H](C)C(=O)O[C@H]1C[C@@H](C)C=C2C=C[C@H](C)[C@H](CC[C@@H]3C[C@@H](O)CC(=O)O3)[C@H]21 [L, Lovastatin, reference compound]",,,,0 (2×) and 1,"1 (mild, 2 foci per 200 field) and 0 and 2 (moderate, 2-4 foci per 200 field)",2 (33-66%) (2×) and 0 (low- to medium-power evaluation of parenchymal involvement <5%),1 (2×) and 0,,,,,,,,
Dehydrosulphurenic acid/Sulphurenic acid [AR101-DS2],evidently suppressed the MPO activities,reduced lung HP,,0,"1 (mild, 2 foci per 200 field) (2×) and 2 (moderate, 2-4 foci per 200 field)",3 (>66%) (2×) and 1 (5-33%),2 and 1 and 0,"improved TNF-α, IL-1β, IL-6 and TGF-β production",37.91 ± 0.30 g,0.48 ± 0.01 g,1.26 ± 0.03,39.7 ± 0.21 g,0.39 ± 0.01 g,1.01 ± 0.02,significant decrease in the lung index
